From ChEMBL document CHEMBL1156829 (Proc Natl Acad Sci U S A, 2008)
Where “and” joins values, the source holds several entries; their conditions need not be identical. Equal entries are not always repeated.

How the values were obtained:
[1] = NOVARTIS: Cytotoxicity against human hepatocellular carcinoma cell line (Huh7); type: toxicity, cell-based, Huh-7; details: Huh7 cells (hepatocellular carcinoma cell line)
Plasmodium falciparum [2] = test: NOVARTIS: Inhibition of Plasmodium falciparum W2 (drug-resistant) proliferation in erythrocyte-based infection assay; type: functional, organism-based; details: read-out: EC50
Plasmodium falciparum [3] = test: NOVARTIS: Inhibition of Plasmodium falciparum 3D7 (drug-susceptible) proliferation in erythrocyte-based infection assay; type: functional, organism-based

Structure (SMILES)	CC50 [1] [nM]	EC50 (Plasmodium falciparum [2]; Plasmodium falciparum, W2) [nM]	EC50 (Plasmodium falciparum [3]; Plasmodium falciparum, 3D7) [nM]	EC50 (Plasmodium falciparum [2])	EC50 (Plasmodium falciparum [3])
CCCCNC(=O)CCCNC(=O)Cn1cnc2sc3c(c2c1=O)CCCC3	> 10000	> 683	> 1250		
Oc1cc(-c2ccccc2)nc2ccccc12	> 93200	547	1060		
COc1cc(NC(C)CCCN(Cc2ccccc2OC)S(=O)(=O)c2ccc(Br)cc2)c2ncccc2c1 (stereo unspecified)	4580	427	945		
N#Cc1ccccc1N1CCCCC1	> 100000	1790	> 10800		
NC1=NC(c2ccccc2)N(c2ccccc2)C(N)=N1 (stereo unspecified)	> 100000	204	82.3		
Cc1cc(C)c(C(Nc2ccccn2)c2ccc3cccnc3c2O)c(C)c1 (stereo unspecified)	> 67900	1070	3180		
CC(=O)NC(=Cc1ccc(OC(F)F)cc1)C(=O)O	> 100000	2270	> 12500		
COc1cc(C=NNC(=O)c2ccco2)ccc1OCc1ccc([N+](=O)[O-])cc1	> 10000	> 941	> 1250		
CS(=O)(=O)c1ccccc1S(=O)(=O)N1CCC(NC(=O)c2ccccc2Cl)(C(=O)O)CC1	> 10000	> 725	> 1250		
Cc1ccc2nc(Nc3nc(O)c4ccccc4n3)nc(C)c2c1	> 10000	> 1620	575		
Cn1nc(C(=O)N2CCc3ccccc3C2)c2c1CCC(N1CCN(Cc3cccc(F)c3)CC1)C2 (stereo unspecified)	8020	220	477		
COc1ccc(C2=C(c3ccc(OC)cc3)C3(c4ccccc4)C(=O)C2(c2ccccc2)C2C(=O)N(c4ccc(C)cc4)C(=O)C23)cc1 (stereo unspecified)	> 100000	1480	> 12500		
COCCCNC(=O)/C=C/c1ccc(C(C)C)cc1	> 13500	1490	1050		
N#Cc1c2c(c(N3CCN(CCO)CC3)n3c1nc1ccccc13)CCC2	> 100000	177	207		
CCCNC(=O)CCCCCSc1nc2ccccc2c(=O)n1-c1ccc(F)cc1	> 11500	> 1180	780		
COc1ccc(C2CC(=O)C3=C(C2)NC(C)=C(C(=O)OC2CCCC2)C3c2ccc(SC)cc2)cc1OC (stereo unspecified)	> 100000	36.5	249		
Cc1nc(Oc2ccc3ccc(=O)oc3c2)c2c3c(sc2n1)CCCCC3	> 10000	> 1250	2300		
CC1CC(C)CC(C)C(O)C(C#N)=CC=CCC(C2CCCC2C(=O)O)OC(=O)CC(O)C(C)C1 (stereo unspecified)	2850	> 1250	43.7		
CC(C)C(=O)N1CCOc2c(cc(-c3csc4ccccc34)cc2OCCc2ccccn2)C1	50600	125	183		
COc1ccc(S(=O)(=O)N2CCN(C(=S)NC3CCCCC3)CC2)cc1	> 100000	1000	8540		
CCc1cc2c(cc1-c1csc(NC(=N)N)n1)C(C)(C)CCC2(C)C	24600	961	733		
Cc1ccc(-c2c[n+](Cc3cccc(C)c3)c3n2CCC3)cc1	20600	493	568		
CCCN(CCC)C(=O)Cn1ccc(=N)c2ccccc21	> 100000	671	1200		

Structure (SMILES)	CC50 [1] [nM]	EC50 (Plasmodium falciparum [2]; Plasmodium falciparum, W2) [nM]	EC50 (Plasmodium falciparum [3]; Plasmodium falciparum, 3D7) [nM]	EC50 (Plasmodium falciparum [2])	EC50 (Plasmodium falciparum [3])
Cc1ccc(O)c(NC(=O)c2cnn3c(C(F)(F)F)cc(-c4ccc(Br)cc4)nc23)c1	> 100000	2480	7450		
CC(NC(=O)C(=O)N1CCCCC1)C(c1cccs1)N1CCOCC1 (stereo unspecified)	> 100000	675	> 1680		
COc1ccc(N2C(=O)C3C(C2=O)C2(c4ccccc4)C(=O)C3(c3ccccc3)C(c3ccc4c(c3)OCO4)=C2c2ccc3c(c2)OCO3)c([N+](=O)[O-])c1 (stereo unspecified)	> 100000	938	1160		
COc1cc2c(cc1OC)C(CCCCCl)=NC(C)(C)C2	> 100000	> 12500	343		
COc1ccc2nc(C)cc(Nc3ccc(Oc4ccc(Cl)c5ccccc45)c(Cl)c3)c2c1	19800	826	365		
C=CC[n+]1cccc2c3ccccc3ccc21	> 100000	1900	1720		
CCN(CC)CCCC(C)N(Cc1cccc(OCc2ccccc2)c1)C(=O)NCc1ccccc1 (stereo unspecified)	> 10000	> 1100	> 1250		
O=C(c1ccc2nc(N3CCCCC3)sc2c1)N1CCN(Cc2ccccc2)CC1	> 100000	503	907		
COc1ccc(/C=C2/SC(=Nc3ccccc3OC)NC2=O)cc1	19800	38.4	83.6		
COc1ccccc1N1CCN(Cc2cc(C)c(C)cc2O)CC1	58000	80.5	383		
O=C(Cc1ccccc1)NCCCCNc1ccnc2cc(Cl)ccc12	> 9600	316	330		
O=C(Cn1nc([N+](=O)[O-])nc1Br)NC1CCCCC1	> 100000	2660	4510		
Cc1nnc(Nc2ccc(F)cc2)c2ccccc12	> 10000	> 68.9	> 1250		
CC(C)(C)CC(C)(C)Nc1c(-c2ccccc2OC(=O)C(c2ccccc2)c2ccccc2)nc2ccccn12	2150	36.5	882		
O=[N+]([O-])c1ccc2nc(Nc3ccc(Cl)c(Cl)c3)c(Nc3ccc(Cl)c(Cl)c3)nc2c1	> 85400	7040	7230		
C=C1[C@@H](C)[C@H]2[C@H](Cc3ccccc3)NC(=O)[C@]23C(OC(C)=O)C=C[C@@](C)(O)C(=O)[C@@H](C)CC=C[C@H]3[C@@H]1O (stereo partly specified)	> 10000	711	1170		
C[n+]1ccc(/C=C/c2ccccc2F)c2ccccc21	> 10000	< 5.24	65.3		
CCCCCCn1c(=O)c(C(=O)NCC[N+](CC)(CC)CC)c(O)c2ccccc21	> 100000	236	506		
CCOc1ccccc1-n1c(N)c(C(=O)Nc2ccc(F)cc2)sc1=S	> 100000	230	968		
CNC1=C(N(C(C)=O)c2ccc(Br)cc2)C(=O)c2ccccc2C1=O	> 10000	156	162		
CC(C)c1ccc(NC(=O)/C=C/c2ccccc2Cl)cc1	> 10000	109	186		
CC(C)CNC(=O)c1cnc(NCCCN(C)C)nc1NCC1CCCCC1	> 10000	815	334		
CN=C1S/C(=C\c2ccc(OCC(=O)O)c(OC)c2)C(=O)N1C	> 10000	> 703	> 1250		

Structure (SMILES)	CC50 [1] [nM]	EC50 (Plasmodium falciparum [2]; Plasmodium falciparum, W2) [nM]	EC50 (Plasmodium falciparum [3]; Plasmodium falciparum, 3D7) [nM]	EC50 (Plasmodium falciparum [2])	EC50 (Plasmodium falciparum [3])
COc1ccc(CN2CCN(C(=O)c3cccnc3)CC2)cc1OC	> 100000	2010	349		
CC[C@H](C)C[C@H]1CC[C@](O)([C@](C)(O)C(=O)N[C@@H]2C(=O)N3NCCC[C@@H]3C(=O)N(O)[C@@H](C)C(=O)NCC(=O)N3NCCC[C@H]3C(=O)N(O)[C@H](C)C(=O)O[C@H]2C(C)C)O[C@@H]1C	465	567	438		
CCc1ccc(C(=O)C[n+]2cc(-c3ccc(C)cc3)n3c2CCC3)cc1	32700	333	764		
Nc1ccc(N2CCCCCC2)cc1	> 100000	183	153		
CCN(CC)CCNC(=O)C1c2ccccc2C(=O)N(Cc2ccc(F)cc2)C1c1ccc(OC)cc1 (stereo unspecified)	46400	2420	782		
N#CC(c1ccc(C(F)(F)F)cc1)c1ccc2c(C(F)(F)F)cc(C(F)(F)F)nc2n1 (stereo unspecified)	2510	316	413		
Cc1cc(NC(=O)/C=C/c2ccccc2Cl)ccc1Br	> 10000	1810	1350		
CC1CCN(S(=O)(=O)c2ccc(C(=O)NCc3ccco3)cc2)CC1	> 100000	1090	894		
COc1ccc(OC)c(/C=C/C(=O)Nc2ccc3nc(N4CCN(C)CC4)cc(C)c3c2)c1	> 10000	> 873	> 1250		
O=C(Nc1ccc(C(=O)Nc2ccc(C3=NCCCN3)cc2)cc1)Nc1ccc(C2=NCCCN2)cc1	> 7280	20.4	34.4		
COc1ccc(C2CC(=O)C3=C(C2)NC(C)=C(C(=O)OC2CCCC2)C3c2ccccc2OC)cc1OC (stereo unspecified)	> 100000	72.8	212		
COc1ccc(C2CC(=O)C3=C(C2)NC(C)=C(C(=O)OC2CCCC2)C3c2ccc(Cl)cc2)cc1OC (stereo unspecified)	21600	16.7	29		
COC(=O)c1ccc2c(=O)n(Cc3ccco3)c(SCC(=O)n3nc(N)cc3C)nc2c1	> 100000	819	337		
CCOc1ccc2nc(C)cc(Nc3ccc(C)c(Cl)c3)c2c1	13600	348	240		
CCOC(=O)c1[nH]c2ccccc2c1N=NN(C)C	36100	376	128		
CCN1C(=O)N(CC(N)=O)C(=O)C12CCN(Cc1ccc(N(C)c3ccccc3)cc1)CC2	57800	7790	> 12500		
O=C(O)CCCNC(=O)C(O)(c1ccccc1)c1ccccc1	> 100000	1330	> 12500		
O=C(Cc1ccc(F)cc1Cl)N1CCN(c2cccc3c2C(=O)N(Cc2ccccn2)C3=O)CC1	> 10000	> 1170	> 1250		
C1=C(c2ccccc2)CCN(c2ncnc3c2nc2n3CCCCC2)C1	> 85800	1080	1290		
COC(=O)c1ccc(C2C3=C(O)CC(c4ccc(C)cc4)CC3=Nc3ccccc3N2C(=O)c2cccs2)cc1 (stereo unspecified)	> 100000			808 nM and 264 nM	328 nM and 88 nM
CCN1/C(=C/C=C/c2oc3ccc4ccccc4c3[n+]2CC)Oc2ccc3ccccc3c21	> 10000	578	> 1250		
